Test results as given in patent publication US20250108036A1, “COMPOSITIONS FOR REMOVING SENESCENT CELLS AND USES THEREOF” (LIFECEUTIX CO., LTD., priority 2021, published 2025).

What was measured:
[1] = fatigue/weakness tests and body weight in doxorubicin-aged mice (Example 8-7); format: in vivo, C57BL6J mice; conditions: mice
Description: (§1) After adapting 8-week-old male C57BL6J mice (purchased from KRIBB Laboratory Animal Resource Center) to the experimental environment for 1 week, doxorubicin, an anticancer drug, was administered intraperitoneally at a concentration of 10 mg/kg, and mice that were induced to age for more than 10 days were assigned to an experimental group and a control group. LX-112 was mixed with 0.5% CMC-Na solution (purchased from Sigma) and administered orally at a concentration of 70 mg/kg daily for 21 days. The control group was administered only the solution in the same volume. After drug administration was completed, the method described in each Example below was performed.
In the same way as Example 7-7, in order to analyze fatigue and weakness that occur as a side effect due to treatment with anticancer drugs in mice, activity evaluation (open field test), endurance evaluation (wire hanging test), and muscle strength and grip strength test (grip strength test) were performed. […] In Table 47, the amount of each evaluation after aging was induced by treatment with the anticancer drug was calculated as 100% and compared it with the amount of each evaluation after treatment with LX-112.

SAOS-2 [2] = assay: CellTiter-Glo cell viability of senescent SAOS-2 cancer cells (Example 2-2); format: cell-based, human
Description: The standard for treating various cancers, including osteosarcoma, is repeated chemotherapy. Accordingly, aging was induced in SAOS-2 in the same manner as in Example 2-1, and then (i) treated again with doxorubicin (DOX→DOX) or (ii) treated with the LX-112 (5 μM) composition (DOX→LX-112).

IL6, CXCL1, CXCL10, IL1β [3] = assay: SASP mRNA qRT-PCR in doxorubicin-aged mice (Example 8-6); format: in vivo, C57BL6J mice; conditions: mice, doxorubicin 10 mg/kg i.p.; untreated = 1
Description: as §1
Using cDNA synthesized in the same manner as Example 7-6, qRT-PCR was performed and analyzed for aging-related inflammation and fibrosis secretory factors (SASP) such as IL6, CXCL1, CXCL10, and IL1β. […] Table 45 calculates the mRNA amount of each factor after aging was induced by treatment with the anticancer drug as 100% and compared it with the mRNA amount of each factor after treatment with LX-112.

AST, ALT = assay: serum AST and ALT in doxorubicin-aged mice (Example 8-8); format: in vivo, C57BL6J mice; conditions: mice, doxorubicin 10 mg/kg i.p., untreated = 1
Description: as §1
In the same manner as in Example 7-5, the amounts of AST (aspartate aminotransferase) and ALT (alanine transaminase) released into the blood during liver damage were measured by spectrophotometry in the serum collected from mice using a kit (purchased from Sigma) according to the method described in the manual. […] Table 50 calculates the amount of each factor after aging was induced by treatment with the anticancer drug as 100% and compared it with the amount of each factor after treatment with LX-112.

foreskin cells = assay: SA-β-gal staining of doxorubicin-treated foreskin cells (Example 1-1); format: cell-based, human; conditions: proportion of SA-β-gal stained cells; doxorubicin 250 nM 24 h + 7 days
Description: Specifically, foreskin cells (source: Chungnam National University College of Medicine) derived from humans were cultured in a designated medium (Iscove's Modified Dulbecco's Medium, source: ATCC; 10% FBS, source: GenDEPOT; 100 U/ml Penicillin & Streptomycin, source: Invitrogen), then treated with doxorubicin (DOX) dissolved in dimethyl sulfoxide (DMSO) at a concentration of 250 nM for 24 hours, and further cultured for 7 days to induce aging. […] To measure the proportion of aged cells, cells treated with doxorubicin and the control group were inoculated into a 24 well plate and stabilized for 24 hours. Then SA-β-gal, a marker related to aging, was stained using a kit (purchased from Cell Signaling Technology), and the proportion of senescent cells having the stained SA-β-gal was measured using an optical microscope.

SA-β-gal = SA-β-gal staining of tissues of doxorubicin-aged mice (Example 8-3); format: in vivo, C57BL6J mice; conditions: stained area; mice, doxorubicin 10 mg/kg i.p.; untreated = 1
Description: as §1
Mice were sacrificed in the same method in described in Example 7-3, and tissue sections were prepared from the organ tissues of each region. SA-β-gal, an aging marker was stained. […] FIG. 3 is a photographic result of staining of adipose tissue.

SAOS-2 [4] = assay: senescent SAOS-2 tumor size in mice (Example 2-3); format: in vivo, BALB/c nude mice; conditions: doxorubicin 10 mg/kg i.p.; after 10 days LX-112 100 mg/kg oral daily 21 days or repeated doxorubicin
Description: After 7-week-old male BALB/c nude mice (purchased from KRIBB Laboratory Animal Resource Center) were adapted to the experimental environment for one week, the mice were randomized into an experimental group and a control group. SAOS-2 (10^6 cells), a human osteosarcoma cancer cell line cultured in the same manner as Example 2-1, was mixed with PBS (purchased from Welgene) and then anesthetized using 2% isoflurane (purchased from Sigma). It was administered subcutaneously to mice. When the size of the tumor reached about […], doxorubicin was mixed at a concentration of 10 mg/kg in a 1:1 solution of distilled water and PBS (pH 7.2) and administered intraperitoneally to induce tumor aging. After 10 days, LX-112 mixed with 0.5% CMC-Na solution (purchased from Sigma) at a concentration of 100 mg/kg was orally administered daily for 21 days, and the size of the tumor was measured. The control group was repeatedly administered a solution mixed with doxorubicin, and then the size of the tumor was measured.

lipofuscin = lipofuscin staining of muscle of doxorubicin-aged mice (Example 8-4); format: in vivo, C57BL6J mice; conditions: stained area; mice, doxorubicin 10 mg/kg i.p.; untreated = 1
Description: as §1
Mice were sacrificed in the same manner as in Example 7-4, and tissue sections were prepared from muscle tissue. Lipofuscin, an aging-related degenerative marker was stained.

IL6, CXCL1, CXCL10, IL1β [5] = assay: SASP mRNA qRT-PCR in doxorubicin-aged mice (Example 8-6); format: in vivo, C57BL6J mice; conditions: doxorubicin 10 mg/kg i.p., untreated = 1
IL6 = assay: serum IL6 ELISA in doxorubicin-aged mice (Example 8-5); format: in vivo, C57BL6J mice; conditions: mice, doxorubicin 10 mg/kg i.p., untreated = 1
Description: as §1
The amount of IL6, an aging-related inflammation secretory factor (SASP), was measured in serum collected from mice in the same manner as in Example 7-5 using an enzyme-linked immunosorbent assay (ELISA Kit, purchased from R&D Systems).

p16, p21 = assay: p16 and p21 mRNA qRT-PCR in doxorubicin-aged mice (Example 8-2); format: in vivo, C57BL6J mice; conditions: mice, doxorubicin 10 mg/kg i.p.; untreated = 1
Description: as §1
The mouse was sacrificed in the same manner as in Example 7-2, RNA was extracted from the organ tissue of each region, and qRT-PCR was performed and analyzed using the synthesized cDNA. […] Table 37 calculates the mRNA amounts of p16 and p21 after aging was induced by treatment with the anticancer drug as 100% and compared them with the mRNA amounts of p16 and p21 after treatment with LX-112.

SAOS-2 [6] = assay: SA-β-gal staining of doxorubicin-treated SAOS-2 cells (Example 2-1); format: cell-based, human; conditions: doxorubicin-induced aging as in Example 1-1
[7] = Table 46, doxorubicin 10 mg/kg i.p.

- mRNA (Fold) CXCL10, Liver (IL6, CXCL1, CXCL10, IL1β [3]): 2.6 (±0.9)^ Fold
- mRNA (Fold) IL6, eWAT (IL6, CXCL1, CXCL10, IL1β [3]): 3.2 (±0.3) Fold
- SA-β-gal (Fold) Kidney (SA-β-gal): 4.1 (±1.5) Fold
- SA-β-gal (Fold) Liver (SA-β-gal): 3.7 (±0.9) Fold
- SA-β-gal (Fold) Lung (SA-β-gal): 1.3 (±0.4) Fold
- SA-β-gal (Fold) eWAT (SA-β-gal): 4.2 (±0.9) Fold
- Lipofuscin (Fold) Muscle (lipofuscin): 2.2 (±0.5) Fold
- mRNA (Fold) CXCL1, Liver (IL6, CXCL1, CXCL10, IL1β [5]): 3 (±0.9) Fold
- mRNA (Fold) CXCL1, eWAT (IL6, CXCL1, CXCL10, IL1β [5]): 1.3 (±0.4)^ Fold
- mRNA (Fold) CXCL10, eWAT (IL6, CXCL1, CXCL10, IL1β [5]): 3 (±1.2) Fold
- mRNA (Fold) IL1β, Liver (IL6, CXCL1, CXCL10, IL1β [5]): 1.6 (±0.3) Fold
- mRNA (Fold) IL1β, eWAT (IL6, CXCL1, CXCL10, IL1β [5]): 1.6 (±0.2) Fold
- mRNA (Fold) IL6, Liver (IL6, CXCL1, CXCL10, IL1β [5]): 1.8 (±0.3) Fold
- IL6 (Fold) (IL6): 11.7 (±0.5) Fold
- p16 mRNA (Fold) Kidney (p16, p21): 1.3 (±0.3) Fold
- p16 mRNA (Fold) Liver (p16, p21): 2.6 (±0.8) Fold
- p16 mRNA (Fold) eWAT (p16, p21): 3.2 (±1.2)^ Fold
- p21 mRNA (Fold) Kidney (p16, p21): 2.6 (±2.1) Fold
- p21 mRNA (Fold) Liver (p16, p21): 3.8 (±2.3) Fold
- p21 mRNA (Fold) eWAT (p16, p21): 3.9 (±3) Fold
Structure (SMILES): COc1cccc2c1C(=O)c1c(O)c3c(c(O)c1C2=O)C[C@@](O)(C(=O)CO)C[C@@H]3O[C@H]1C[C@H](N)[C@H](O)[C@H](C)O1 [DOX, doxorubicin, reference compound]
- Grip Strength Test Strength (N) [1, 7]: 0.7 (±0.1) N
- Open Field Test Time in Center (%) [1, 7]: 4.9 (±2.2) %
- Wire Hanging Test Time (Sec) [1, 7]: 32 (±11) Sec
- Mean Body Weight (g) ([1]; doxorubicin 10 mg/kg i.p. without or with LX-112 70 mg/kg oral daily 21 days): 21.3 (±2.6) g
- Survival (%) (SAOS-2 [2]; DOX → DOX (senescent cells treated again with doxorubicin), 3 d): 72 (±7) %
- Survival (%) (SAOS-2 [2]; DOX → DOX, 7 d): 55 (±5) %
- ALT (Fold) (AST, ALT): 1.4 (±0.5) Fold
- AST (Fold) (AST, ALT): 1.3 (±0.0) Fold
- SA-β-gal (%) (foreskin cells): 90 (±7) %
- Tumor Diameter (mm) (SAOS-2 [4]): 15.4 (±1.2) mm
- SA-β-gal (%) (SAOS-2 [6]): 66 (±5) %
